Assays:
[1] = target: Escherichia coli 70S ribosome (E. coli)
[2] = target: Oryctolagus cuniculus (rabbit) 80S ribosome (rabbit (Oryctolagus cuniculus)) (UniProt G1SVW5)
[3] = tested on: ribosomes on endogenous globin mRNAs in RRL; experiment: Polysome profiling of RRL translating endogenous mRNA; format: biochemical, rabbit; conditions: 4 μM PR20, 4 μM GR20, 1 mM GDPCP; 5 min
Protocol: Polysome profiles were obtained using RRL untreated with nuclease, so that it contained endogenous mRNA. 100 μl reactions containing 50% RRL (Green Hectare) 30 μM hemin (Sigma), 75 mM KCl, 0.5 mM MgCl2, 1 mM ATP, 0.2 mM GTP, 2.1 mg/ml creatine phosphate, 30 μM of L-amino acid mix, 15 mg/ml yeast tRNA, 6 mM BME and, when appropriate, translation inhibitors (4 μM PR20, 4 μM GR20, cycloheximide, 40 μM harringtonine, or 1 mM GDPCP with 1 mM MgCl2) were assembled on ice. To start translation, the reactions were warmed in a heat block at either 30 °C or 37 °C as noted. After 5 min, reactions were terminated by addition of 100 μl of ice-cold Stop Buffer (50 mM Hepes-KOH pH 7.4, 150 mM KOAc, 10 mM Mg(OAc)2, and 200 μg/ml cycloheximide). The stopped reactions were applied to 10–50% sucrose gradients in Gradient Buffer (50 mM Hepes-KOH pH 7.4, 150 mM KOAc, 10 mM Mg(OAc)2, 2 mM DTT, and 100 μg/ml cycloheximide) and spun in an SW-41 rotor (Beckman Coulter) at 197,568xg (avg) for 2 h at 4 °C. Gradients were pumped on a Gradient Station (BioComp Instruments) at a pump rate of 0.29 mm/min and the absorbance at 254 nm was measured by an Econo UV monitor (Biorad) zeroed with 10% sucrose-gradient buffer. The traces were output as CSV files and imported into GraphPad Prism, where the 80S peaks were aligned. Controls were highly reproducible day-to-day. Each experimental condition is shown compared to concurrent, uninhibited control.

[4] = tested on: ribosomes on endogenous beta-globin mRNA in RRL; experiment: Toeprinting of 80S and 4-5-mer polysome fractions on beta-globin mRNA; format: biochemical, rabbit; conditions: for normalized ratio START to CDS, MEAN: 4-5-mer, primer B, mean of ten 20 bp windows
Protocol: Toeprinting analyses were carried out similarly to those in refs. [51],[74], using 80S and polysome (4–5-some) fractions collected from polysome profiles as described in “Polysome Profiles” except that reactions were doubled in size (200 μL), performed at 37 °C, and were stopped with ice-cold 1xAMV Buffer (50 mM Tris-HCl pH 8.3, 50 mM KCl, 5 mM MgCl2) with 200 μg/ml cycloheximide before being separated on at 10–35% sucrose gradient in 1xAMV buffer with 0.5 mM spermidine and 1 mM DTT. 600 μl of each fraction (80S or 4–5-mer) was supplemented with 10 mM DTT. Then 10 U of AMV reverse transcriptase (Promega), 120 nmol dNTPs, and 120 pmol of a 5'[6-carboxyfluorescein (FAM)]-labeled primer (IDT-DNA) were added. Two primers specific to the endogenous beta-globin mRNA in RRL were used in separate reactions: 5′-(FAM)-GGACTCGAAGAACCTCTG (as in ref. [74]) annealed 136 nucleotides downstream of the AUG or 5′-(FAM)-[…] annealed to the end of the 3'-UTR. Primers were extended at 37 °C for 30 min, and then the reaction were extracted in 1:1 phenol:chloroform, supplemented with 1/10 volume of 3 M sodium acetate pH 5.2, and precipitated with 2.5 volumes of 100% ethanol. Pellets were resuspended in 10 μl of deionized formamide (Applied Biosystems) with 1/20 volume of a 35-500 nucleotide orange-dye labeled DNA size standard (MCLab) and loaded onto a 96-well plate. The samples were sent for fragment analysis by capillary electrophoresis to the UMass Chan Medical School Molecular Biology Core Laboratory using an ABI3730XL DNA Fragment Analyzer with capillaries loaded with POP-7 polymer and with an injection voltage of 12.5 kV. Data collection was performed with GeneMapper software (ABI). Data were exported as.fsa files and were analyzed (aligning to ladder and background correction) in GeneMarker 3.0.1 software (SoftGenetics) running in demo mode. Screen captures of traces were taken and traces were integrated using the “Quantification” feature and manually adjusting sliders to include the desired nucleotide range.

[5] = target: Oryctolagus cuniculus (rabbit) 80S ribosome (rabbit (Oryctolagus cuniculus)) (UniProt G1SVW5); remark: listed apart in the source
[6] = even at 100 µM; cited from earlier work
From the text: (§1) This work uncovers how the toxic arginine-containing DPR proteins associated with C9ORF72-ALS/FTD inhibit translation. […] Poly-PR and poly-GR binding to large subunits and assembled 80S ribosomes would compete with the binding of initiator Met-tRNA or elongator tRNAs, and strongly interfere with peptidyl transfer, consistent with transl ...

translation = conditions: even at 100 µM; cited from earlier work
From the text: as §1

[7] = tested on: translation in E. coli cell lysates; experiment: Nanoluciferase translation in E. coli cell lysate (NEBExpress); format: biochemical; conditions: 1 μl of 200 μM stock in 10-μl reaction
Protocol: E. coli cell lysates (NEBExpress, NEB) were used to investigate bacterial translation inhibition by GR20 and PR20. We monitored the translation of an in vitro transcribed mRNA encoding a Shine-Dalgarno sequence preceding the nanoluciferase (Promega) open reading frame. The mRNA was prepared by in vitro transcription of a PCR-template obtained by amplifying the nanoluciferase open reading frame from the plasmid described in reference with the following primers: T7 + SD-forward: […], based on the pet28a+ plasmid and reverse: […]. […] Then 1 μl of water or different concentrations (10-100 μM) of PR20 or GR20 or 200 μM erythromycin were added and the plate was incubated at 37 °C for 5 min inside of an Infinite m1000 pro microplate reader (Tecan). Next, the nanoluciferase mRNA was added to the final concentration of 20 ng/μl in a 10-μl reaction. Translation reactions were incubated at 37 °C for 20 min, luminescence of the samples was continuously measured by the microplate reader to record the time course of protein synthesis. Time progress curves, obtained in the experiments, were processed in MS Excel, and the rate of change of the relative light units between 100 and 200 s was measured, the mean and SEM of three experiments is reported in column graph in Supplementary Fig. 2a.

E. coli 70S ribosomes = experiment: Erythromycin competition in the puromycin assay on 70S ribosomes; format: biochemical; conditions: for fMet-puromycin formed: 20 μM erythromycin and/or 2 μM PR20, 30 nM 70S, quenched at 300 s
Protocol: The assay was performed as described above for the puromycin kinetics, except that the 70S ribosomes were pre-incubated with 22 μM erythromycin for 5 min prior to adding PR20. The stock solution of erythromycin contained 2 mM erythromycin in ethanol, so the control reaction (70S with no erythromycin) and the reactions with erythromycin were prepared to contain the same amount of ethanol (1%). The final concentrations after addition of puromycin were: 30 nM 70S, 66 nM [^35S]-fMet-tRNA^fMet, 1 μM mRNA, 2 μM PR20 (no PR20 in the control reaction), 20 μM erythromycin (or no erythromycin in a control reaction), 50 µM puromycin (in 20 mM Tris-acetate (pH 7.0), 100 mM NH4OAc, 12 mM Mg(OAc)2 and 1% ethanol). Samples were quenched at 300 s when the uninhibited reaction had reached a plateau.

Q: Which apparent inhibition constant (Ki) of peptidyl transfer to puromycin on E. coli 70S ribosomes [1] does the source give for “PR40 (poly-proline-arginine, 40 repeats) (peptide)” here?
A: < 30 nM

Q: And the apparent inhibition constant (Ki) of peptidyl transfer to puromycin on purified rabbit 80S ribosomes [2]?
A: < 30 nM

Q: For `Nc1nc2c(ncn2[C@@H]2O[C@H](COP(=O)(O)OP(=O)(O)CP(=O)(O)O)[C@@H](O)[C@H]2O)c(=O)[nH]1` [GDPCP], which “polysome profile, half-mer peaks” value [3] is on record?
A: increase in half-mer peaks

Q: What about the “site of ribosome accumulation, toe-printing of polysome fractions” value [4] of the same molecule?
A: accumulate within the open reading frame

Q: What about the “Ratio (START to CDS)” value ([4]; 80S fraction, primer A, Fig. 2f independent repeat) of the same molecule?
A: 1.314

Q: What about the “Normalized ratio START/ORF” value ([4]; 80S fraction, primer A, Fig. 2f independent repeat, no inhibitor = 1) of the same molecule?
A: 0.4872

Q: And the “normalized ratio START to CDS, MEAN” value ([4]; Fig. 2g)?
A: 0.7887

Q: And the “normalized ratio START to CDS, MEAN” value ([4]; Fig. 2h independent repeat)?
A: 0.4286

Q: Which IC50 of translation of nanoluciferase mRNA in 33% rabbit reticulocyte lysate [5] does the source give for “PR20 (poly-proline-arginine, 20 repeats) (peptide)” here?
A: 325 nM

Q: What about the IC50 of translation of nanoluciferase mRNA in 50% rabbit reticulocyte lysate [5] of the same molecule?
A: 840 nM

Q: What about the apparent inhibition constant (Ki) of peptidyl transfer from [35S]-fMet-tRNAfMet to puromycin on E. coli 70S ribosomes [1] of the same molecule?
A: 44 nM

Q: What about the concentration at which inhibition of peptidyl transfer to puromycin begins on purified rabbit 80S ribosomes [2] of the same molecule?
A: 100 nM

Q: With “GRKKRRQRRRPPQ [TAT, arginine-rich polypeptide]” as the molecule, how does the cell death [6] read?
A: not to cause translation inhibition or cell death

Q: What about the translation inhibition (translation) of the same molecule?
A: not to cause translation inhibition

Q: What does the source list for “RRRRRRRRRRRR [R12, arginine-rich polypeptide]”?
A: cell death [6]: not to cause translation inhibition or cell death; translation inhibition (translation): not to cause translation inhibition

Q: For `CC[C@H]1OC(=O)[C@H](C)[C@@H](O[C@H]2C[C@@](C)(OC)[C@@H](O)[C@H](C)O2)[C@H](C)[C@@H](O[C@@H]2O[C@H](C)C[C@H](N(C)C)[C@H]2O)[C@](C)(O)C[C@@H](C)C(=O)[C@H](C)[C@@H](O)[C@]1(C)O` [erythromycin], which “effect on nanoluciferase translation in E. coli cell extracts” value [7] is on record?
A: Inhibition of nanoluciferase translation

Q: What about the fMet-puromycin formed (E. coli 70S ribosomes; first column (replicate 1)) of the same molecule?
A: 1468

Q: What about the fMet-puromycin formed (E. coli 70S ribosomes; second column (replicate 2)) of the same molecule?
A: 1479

Q: And the “effect of erythromycin preincubation on inhibition by PR20” value (E. coli 70S ribosomes; 20 μM erythromycin, 2 μM PR20)?
A: prevents the inhibitory action of PR20

Q: With “RRRRNRTRRNRRRVR [FHV, arginine-rich polypeptide]” as the molecule, how does the cell death [6] read?
A: not to cause translation inhibition or cell death

Q: And the translation inhibition (translation)?
A: not to cause translation inhibition
